PMC6202177 (Nature chemical biology, 2018)

How the values were obtained:
[1] = target: peptide-deficient H2-D^d/hβ2m/TAPBPR (Mus musculus, UniProt P01900); experiment: Fluorescence anisotropy competition with TAMRA-P18-I10; format: binding, murine H2-D^d, human β2m; conditions: negative control peptide, in words
[2] = target: H2-D^d/TAPBPR (MHC-I/TAPBPR) (Mus musculus, UniProt P01900); experiment: Thermodynamic cycle step 4: peptide binding to MHC-I/TAPBPR; set-up: species or system murine H2-D^d, human β2m; conditions: Fig. 6 mechanism, in words
biotinylated TAPBPR = biotinylated TAPBPR (UniProt Q9BX59); experiment: SPR
[3] = target: peptide-deficient H2-D^d/hβ2m/TAPBPR complex (murine | human | not stated); experiment: fluorescence polarisation
RGPGC/H2-D^d S73C = experiment: SEC binding of TAPBPR; set-up: species or system murine H2-D^d; conditions: partially loaded RGPGC/H2-D^d S73C, in words
[…]/HLA-B*27:02/hβ2m = SEC binding of TAPBPR; set-up: species or system human
P18-I10/H2-D^d = experiment: SEC binding of TAPBPR; set-up: species or system murine H2-D^d; conditions: fully-loaded P18-I10/H2-D^d, in words
peptide-deficient H2-D^d = experiment: SEC binding of TAPBPR; set-up: species or system murine H2-D^d; conditions: in words
P18-I10/H2-D^d/hβ2m [4] = experiment: NMR titration and line shape analysis of TAPBPR onto P18-I10/H2-D^d/hβ2m; format: binding, murine H2-D^d, human β2m; conditions: slow exchange on the chemical shift timescale, in words
[…]/HLA-A*01:01/hβ2m = NMR binding of TAPBPR; set-up: species or system human
[…]/HLA-B*15:01/hβ2m = SEC binding of TAPBPR; set-up: species or system human
[5] = target: peptide-deficient H2-D^d/hβ2m/TAPBPR complex (murine | human | not stated); experiment: NMR titration
P18-I10/H2-D^d/hβ2m [6] = target: P18-I10/H2-D^d/hβ2m (murine | human | HIV); experiment: NMR titration

FVTI
stability and exchange in the DSF and FA assays [1]: minimal stability and exchange
affinity class of peptide [2]: low-affinity

H2-D^(d S73C)/β2m (complex)
koff (biotinylated TAPBPR): < 0.002 s⁻¹

P18-I10 peptide
K2′ [3]: 0.186 µM
Kd [3]: 0.09 µM

TAPBPR: molecular chaperone, TAP-binding protein related; luminal domain expressed in Drosophila S2 cells
TAPBPR binding (SEC) (RGPGC/H2-D^d S73C): high-affinity complex
TAPBPR binding (SEC) ([…]/HLA-B*27:02/hβ2m; 80 μM pMHC-I, 160 μM TAPBPR, room temperature 1 hour, HLA-B*27:02): No TAPBPR binding could be detected
koff implied if an interaction exists ([…]/HLA-B*27:02/hβ2m; HLA-B*27:02, inferred from lack of detectable binding (≫)): > 3 s⁻¹
TAPBPR binding (SEC) (P18-I10/H2-D^d): high-affinity complex
TAPBPR binding (SEC) (peptide-deficient H2-D^d): high-affinity complex
TAPBPR binding to pMHC-I by NMR (P18-I10/H2-D^d/hβ2m [4]): tight complex
TAPBPR binding (NMR) ([…]/HLA-A*01:01/hβ2m; 200 µM pMHC-I, two-fold molar excess TAPBPR, HLA-A*01:01): No TAPBPR binding could be detected
koff implied if an interaction exists ([…]/HLA-A*01:01/hβ2m; HLA-A*01:01, inferred from lack of detectable binding (≫)): > 3 s⁻¹
TAPBPR binding (SEC) ([…]/HLA-B*15:01/hβ2m; 80 μM pMHC-I, 160 μM TAPBPR, room temperature 1 hour, HLA-B*15:01): No TAPBPR binding could be detected
koff implied if an interaction exists ([…]/HLA-B*15:01/hβ2m; HLA-B*15:01, inferred from lack of detectable binding (≫)): > 3 s⁻¹

^13C labeled P18-I10 (peptide)
Kd [5]: < 7.2 µM
koff [5]: < 80 s⁻¹

B1: TAPBPR (TAP-binding protein related), luminal domain (domain or fragment)
chain: KPHPAEGQWRAVDVVLDCFLAKDGAHRGALASSEDRARASLVLKQVPVLDDGSLEDFTDFQGGTLAQDDPPIIFEASVDLVQIPQAEALLHADCSGKEVTCEISRYFLQMTETTVKTAAWFMANMQVSGGGPSISLVMKTPRVTKNEALWHPTLNLPLSPQGTVRTAVEFQVMTQTQSLSFLLGSSASLDCGFSMAPGLDLISVEWRLQHKGRGQLVYSWTAGQGQAVRKGATLEPAQLGMARDASLTLPGLTIQDEGTYICQITTSLYRAQQIIQLNIQASPKVRLSLANEALLPTLICDIAGYYPLDVVVTWTREELGGSPAQVSGASFSSLRQSVAGTYSISSSLTAEPGSAGATYTCQVTHISLEEPLGASTQVVPPERR
Kd (P18-I10/H2-D^d/hβ2m [6]): 32 µM
